The values that follow come from ChEMBL document CHEMBL4382229, “Benzofuran derivatives and their anti-tubercular, anti-bacterial activities” (Eur J Med Chem, 2019).

Holding throughout (format): functional
The subject of experiment [1] is Bacillus subtilis. Kind of experiment: Antibacterial activity against Bacillus subtilis NCIM 2439 assessed as zone of inhibition at 1 ug/ml after 24 hrs by agar diffusion method. The note with it: NCIM 2439, 24 h, read-out: IZ. (A growth-free zone around the sample is the usual read-out of agar diffusion tests.)
Experiment [2] has as its system Staphylococcus aureus. The experiment in a line: Antibacterial activity against Staphylococcus aureus NCIM 2079 assessed as zone of inhibition at 1 ug/ml after 24 hrs by agar diffusion method. The note with it: NCIM 2079, 24 h, read-out: IZ.
Experiment [3] deals with Escherichia coli. Kind of experiment: Antibacterial activity against Escherichia coli NCIM 2064 assessed as zone of inhibition at 1 ug/ml after 24 hrs by agar diffusion method. The note with it: NCIM 2064, 24 h, read-out: IZ.
Experiment [4] concerns Pseudomonas aeruginosa. Kind of experiment: Antibacterial activity against Pseudomonas aeruginosa NCIB 8650 assessed as zone of inhibition at 1 ug/ml after 24 hrs by agar diffusion method. The note with it: NCIB 8650, 24 h, read-out: IZ.
In experiment [5] the test system is Staphylococcus aureus. Kind of experiment: Antibacterial activity against Staphylococcus aureus assessed as zone of inhibition at 1 mg/ml after 32 hrs by agar-well diffusion method. Particulars: read-out: IZ.
The next experiment concerns Klebsiella pneumoniae. The experiment in a line: Antibacterial activity against Klebsiella pneumoniae assessed as zone of inhibition at 1 mg/ml after 32 hrs by agar-well diffusion method. The note with it: read-out: IZ.
Experiment [6] has as its system Pseudomonas aeruginosa. Kind of experiment: Antibacterial activity against Pseudomonas aeruginosa assessed as zone of inhibition at 1 mg/ml after 32 hrs by agar-well diffusion method. Particulars: read-out: IZ.
Experiment [7] relates to Escherichia coli. Kind of experiment: Antibacterial activity against Escherichia coli assessed as zone of inhibition at 1 mg/ml after 32 hrs by agar-well diffusion method. The note with it: read-out: IZ.
Experiment [8] has as its system Bacillus subtilis. Kind of experiment: Antibacterial activity against Bacillus subtilis MTCC 1134 after 24 hrs by broth dilution method. Particulars: MTCC 1134, 24 h.
For experiment [9], the system named is Escherichia coli. Kind of experiment: Antibacterial activity against Escherichia coli MTCC 1559 after 24 hrs by broth dilution method. The note with it: MTCC 1559, 24 h. For orientation: Broth dilution looks for growth in wells or tubes with falling amounts of substance.
Experiment [10] concerns Pseudomonas aeruginosa. The experiment in a line: Antibacterial activity against Pseudomonas aeruginosa MTCC 1034 after 24 hrs by broth dilution method. Particulars: MTCC 1034, 24 h.

Broadly, the MIC is the least concentration at which growth counts as inhibited.

Values after ≈ are worked out from the molar mass of the structure shown.

Turning to `CCOC(=O)c1cc(-c2cc3ccccc3o2)on1`, the zone of inhibition at 1 µg/mL in the experiment on Bacillus subtilis [1], with Staphylococcus aureus [2], in the experiment with Escherichia coli [3] and in the experiment with Pseudomonas aeruginosa [4] was 9 to 30 mm throughout.
Regarding `CCOC(=O)c1cc(-c2oc3c(Cl)cc(Cl)cc3c2C)on1`, the zone of inhibition at 1 µg/mL with Bacillus subtilis [1], in the experiment on Staphylococcus aureus [2], in the experiment with Escherichia coli [3] and with Pseudomonas aeruginosa [4] was 9 to 30 mm throughout.
In the case of `CCOC(=O)c1cc(-c2cc3cc(Br)ccc3o2)on1`, the zone of inhibition at 1 µg/mL with Bacillus subtilis [1], in the experiment on Staphylococcus aureus [2], in the experiment on Escherichia coli [3] and in the experiment with Pseudomonas aeruginosa [4] was 9 to 30 mm throughout.
`Brc1ccc2oc(-c3cn4c(-c5cc6ccccc6o5)csc4n3)cc2c1`: the zone of inhibition at 1000 µg/mL in the experiment on Staphylococcus aureus [5], with Klebsiella pneumoniae, with Pseudomonas aeruginosa [6] and in the experiment on Escherichia coli [7] was 6 to 23 mm each time.
As to `NNC(=O)c1cc(-c2cc3cc(Br)ccc3o2)n(-c2ccccc2)n1`, the zone of inhibition at 1 µg/mL in the experiment with Bacillus subtilis [1], in the experiment with Staphylococcus aureus [2], with Escherichia coli [3] and in the experiment on Pseudomonas aeruginosa [4] was 9 to 30 mm throughout.
On to `c1ccc2oc(-c3cn4c(-c5cc6ccccc6o5)csc4n3)cc2c1`, for which the zone of inhibition at 1000 µg/mL in the experiment on Staphylococcus aureus [5], in the experiment with Klebsiella pneumoniae, with Pseudomonas aeruginosa [6] and in the experiment with Escherichia coli [7] was 6 to 23 mm in each case.
Regarding `Brc1ccc2oc(-c3cn4c(-c5ccccc5)csc4n3)cc2c1`, the zone of inhibition at 1000 µg/mL with Staphylococcus aureus [5], in the experiment on Klebsiella pneumoniae, with Pseudomonas aeruginosa [6] and with Escherichia coli [7] was 15 to 20 mm throughout.
Turning to `COC(=O)c1cc(-c2cc3cc(Br)ccc3o2)[nH]n1`, the zone of inhibition at 1 µg/mL in the experiment on Bacillus subtilis [1], in the experiment on Staphylococcus aureus [2], in the experiment with Escherichia coli [3] and with Pseudomonas aeruginosa [4] was 9 to 30 mm in each case.
Turning to `Sc1nc(-c2cc3ccccc3o2)cc(-c2cccs2)n1`, the minimal inhibitory concentration (MIC) with Bacillus subtilis [8], in the experiment on Escherichia coli [9] and against Pseudomonas aeruginosa [10] was 4.32 to 18.4 µg/mL (≈ 13.9 to 59.4 µM) in each case.
With `Cc1ccc(-c2csc3nc(-c4cc5ccccc5o4)cn23)cc1`, the zone of inhibition at 1000 µg/mL with Staphylococcus aureus [5], with Klebsiella pneumoniae, in the experiment with Pseudomonas aeruginosa [6] and with Escherichia coli [7] was 6 to 23 mm in each case.
Regarding `COC(=O)c1cc(-c2cc3cc(Br)ccc3o2)n(-c2ccccc2)n1`, the zone of inhibition at 1 µg/mL in the experiment with Bacillus subtilis [1], with Staphylococcus aureus [2], in the experiment on Escherichia coli [3] and with Pseudomonas aeruginosa [4] was 9 to 30 mm each time.
`Oc1nc(-c2cc3ccccc3o2)cc(-c2cccs2)n1`: the MIC against Bacillus subtilis [8], in the experiment on Escherichia coli [9] and with Pseudomonas aeruginosa [10] was 4.32 to 18.4 µg/mL (≈ 14.7 to 62.7 µM) in each case.
Regarding `Cc1ccc(-c2cc(-c3cc4cc(Br)ccc4o3)nc(S)n2)s1`, the MIC against Bacillus subtilis [8], in the experiment on Escherichia coli [9] and against Pseudomonas aeruginosa [10] was 4.32 to 18.4 µg/mL (≈ 10.7 to 45.7 µM) in each case.
For `Sc1nc(-c2cc3cc(Br)ccc3o2)cc(-c2cccs2)n1`, the MIC against Bacillus subtilis [8], in the experiment with Escherichia coli [9] and against Pseudomonas aeruginosa [10] was 4.32 to 18.4 µg/mL (≈ 11.1 to 47.4 µM) throughout.
`COC(=O)c1cc(-c2oc3c(Cl)cc(Cl)cc3c2C)[nH]n1`: the zone of inhibition at 1 µg/mL in the experiment on Bacillus subtilis [1], in the experiment on Staphylococcus aureus [2], in the experiment with Escherichia coli [3] and in the experiment on Pseudomonas aeruginosa [4] was 19 to 30 mm each time.
On to `Nc1nc(-c2cc3cc(Br)ccc3o2)cc(-c2cccs2)n1`, for which the MIC in the experiment on Bacillus subtilis [8], with Escherichia coli [9] and in the experiment on Pseudomonas aeruginosa [10] was 4.32 to 18.4 µg/mL (≈ 11.6 to 49.6 µM) each time.
Take `Cc1ccc(-c2cc(-c3cc4cc(Br)ccc4o3)nc(N)n2)s1`: the MIC against Bacillus subtilis [8], with Escherichia coli [9] and against Pseudomonas aeruginosa [10] was 4.32 to 18.4 µg/mL (≈ 11.2 to 47.8 µM) each time.
As to `NNC(=O)c1cc(-c2cc3ccccc3o2)n(-c2ccccc2)n1`, the zone of inhibition at 1 µg/mL in the experiment on Bacillus subtilis [1], with Staphylococcus aureus [2], in the experiment with Escherichia coli [3] and in the experiment on Pseudomonas aeruginosa [4] was 9 to 30 mm in each case.
Take `Oc1nc(-c2cc3cc(Br)ccc3o2)cc(-c2cccs2)n1`: the MIC against Bacillus subtilis [8], in the experiment with Escherichia coli [9] and in the experiment with Pseudomonas aeruginosa [10] was 4.32 to 18.4 µg/mL (≈ 11.6 to 49.4 µM) throughout.
Consider `COC(=O)c1cc(-c2cc3ccccc3o2)[nH]n1`, for which the zone of inhibition at 1 µg/mL with Bacillus subtilis [1], in the experiment on Staphylococcus aureus [2], with Escherichia coli [3] and in the experiment on Pseudomonas aeruginosa [4] was 9 to 30 mm in each case.
As for `COC(=O)c1cc(-c2cc3ccccc3o2)n(-c2ccccc2)n1`, the zone of inhibition at 1 µg/mL in the experiment on Bacillus subtilis [1], with Staphylococcus aureus [2], in the experiment on Escherichia coli [3] and in the experiment with Pseudomonas aeruginosa [4] was 9 to 30 mm in each case.
Take `Nc1nc(-c2cc3ccccc3o2)cc(-c2cccs2)n1`: the MIC against Bacillus subtilis [8], against Escherichia coli [9] and against Pseudomonas aeruginosa [10] was 4.32 to 18.4 µg/mL (≈ 14.7 to 62.9 µM) in each case.
`COC(=O)c1cc(-c2oc3ccc(Cl)cc3c2C)n(-c2ccccc2)n1`: the zone of inhibition at 1 µg/mL in the experiment on Bacillus subtilis [1], with Staphylococcus aureus [2], with Escherichia coli [3] and with Pseudomonas aeruginosa [4] was 9 to 30 mm each time.
For the compound `COC(=O)c1cc(-c2cc3ccccc3o2)n(C(N)=O)n1`, the zone of inhibition at 1 µg/mL in the experiment with Bacillus subtilis [1], in the experiment on Staphylococcus aureus [2], with Escherichia coli [3] and in the experiment on Pseudomonas aeruginosa [4] was 9 to 30 mm throughout.
Regarding `Cc1c(-c2cc(C(=O)NN)nn2-c2ccccc2)oc2c(Cl)cc(Cl)cc12`, the zone of inhibition at 1 µg/mL in the experiment on Bacillus subtilis [1], with Staphylococcus aureus [2], in the experiment on Escherichia coli [3] and with Pseudomonas aeruginosa [4] was 9 to 30 mm throughout.
As for `COC(=O)c1cc(-c2oc3ccc(Cl)cc3c2C)n(C(N)=O)n1`, the zone of inhibition at 1 µg/mL in the experiment with Bacillus subtilis [1], in the experiment on Staphylococcus aureus [2], in the experiment on Escherichia coli [3] and in the experiment on Pseudomonas aeruginosa [4] was 9 to 30 mm throughout.
On to `Fc1ccc(-c2csc3nc(-c4cc5ccccc5o4)cn23)cc1`, for which the zone of inhibition at 1000 µg/mL in the experiment with Staphylococcus aureus [5], with Klebsiella pneumoniae, in the experiment on Pseudomonas aeruginosa [6] and with Escherichia coli [7] was 6 to 23 mm each time.
Turning to `COC(=O)c1cc(-c2oc3c(Cl)cc(Cl)cc3c2C)n(-c2ccccc2)n1`, the zone of inhibition at 1 µg/mL with Bacillus subtilis [1], in the experiment with Staphylococcus aureus [2], with Escherichia coli [3] and in the experiment on Pseudomonas aeruginosa [4] was 9 to 30 mm in each case.
Consider `Brc1ccc2oc(-c3csc4nc(-c5cc6ccccc6o5)cn34)cc2c1`, for which the zone of inhibition at 1000 µg/mL in the experiment with Staphylococcus aureus [5], in the experiment on Klebsiella pneumoniae, in the experiment on Pseudomonas aeruginosa [6] and in the experiment on Escherichia coli [7] was 6 to 23 mm each time.
On to `Cc1c(-c2cc(C(=O)NN)nn2-c2ccccc2)oc2ccc(Cl)cc12`, for which the zone of inhibition at 1 µg/mL with Bacillus subtilis [1], in the experiment with Staphylococcus aureus [2], with Escherichia coli [3] and with Pseudomonas aeruginosa [4] was 9 to 30 mm throughout.
Turning to `COC(=O)c1cc(-c2oc3ccc(Cl)cc3c2C)[nH]n1`, the zone of inhibition at 1 µg/mL in the experiment with Bacillus subtilis [1], in the experiment with Staphylococcus aureus [2], in the experiment on Escherichia coli [3] and in the experiment with Pseudomonas aeruginosa [4] was 9 to 30 mm in each case.
With `Cc1ccc(-c2cc(-c3cc4ccccc4o3)nc(S)n2)s1`, the minimal inhibitory concentration (MIC) against Bacillus subtilis [8], with Escherichia coli [9] and with Pseudomonas aeruginosa [10] was 4.32 to 18.4 µg/mL (≈ 13.3 to 56.9 µM) in each case.
`c1ccc(-c2csc3nc(-c4cc5ccccc5o4)cn23)cc1`: the zone of inhibition at 1000 µg/mL in the experiment on Staphylococcus aureus [5], in the experiment on Klebsiella pneumoniae, in the experiment on Pseudomonas aeruginosa [6] and with Escherichia coli [7] was 6 to 23 mm throughout.
In the case of `Cc1ccc(-c2cc(-c3cc4cc(Br)ccc4o3)nc(O)n2)s1`, the MIC in the experiment with Bacillus subtilis [8], in the experiment on Escherichia coli [9] and against Pseudomonas aeruginosa [10] was 4.32 to 18.4 µg/mL (≈ 11.2 to 47.6 µM) in each case.
`COC(=O)c1cc(-c2cc3cc(Br)ccc3o2)n(C(N)=O)n1`: the zone of inhibition at 1 µg/mL with Bacillus subtilis [1], in the experiment with Staphylococcus aureus [2], in the experiment on Escherichia coli [3] and with Pseudomonas aeruginosa [4] was 9 to 30 mm throughout.
On to `COC(=O)c1cc(-c2oc3c(Cl)cc(Cl)cc3c2C)n(C(N)=O)n1`, for which the zone of inhibition at 1 µg/mL in the experiment with Bacillus subtilis [1], in the experiment on Staphylococcus aureus [2], in the experiment with Escherichia coli [3] and with Pseudomonas aeruginosa [4] was 9 to 30 mm throughout.
For `CCOC(=O)c1cc(-c2oc3ccc(Cl)cc3c2C)on1`, the zone of inhibition at 1 µg/mL with Bacillus subtilis [1], in the experiment on Staphylococcus aureus [2], in the experiment on Escherichia coli [3] and in the experiment with Pseudomonas aeruginosa [4] was 9 to 30 mm throughout.
In the case of `Brc1ccc2oc(-c3cn4c(-c5cc6cc(Br)ccc6o5)csc4n3)cc2c1`, the zone of inhibition at 1000 µg/mL in the experiment on Staphylococcus aureus [5], in the experiment with Klebsiella pneumoniae, in the experiment on Pseudomonas aeruginosa [6] and in the experiment with Escherichia coli [7] was 6 to 23 mm throughout.
As for `Cc1ccc(-c2cc(-c3cc4ccccc4o3)nc(O)n2)s1`, the MIC with Bacillus subtilis [8], with Escherichia coli [9] and against Pseudomonas aeruginosa [10] was 4.32 to 18.4 µg/mL (≈ 14 to 59.8 µM) in each case.
